Assay results as given in patent US10258602B2 (Ocera Therapeutics, Inc., priority 2007, dated 2019).

Columns and labels:
[1] = tested on: Caco-2 cell layer; test: Caco-2 permeability; conditions: for Papp A to B: Caco-2, apical to basolateral; for Papp A to B / Papp B to A: 10 μM, 60 min, 37° C.; for Papp B to A: Caco-2, basolateral to apical; for BtoA/AtoB: Caco-2 ratio of Papp B to A over A to B
Experimental: L. Determination of Caco-2 Permeability
Fully differentiated cell monolayers can be used to assess the membrane transport properties of novel compounds.
Permeability across the Caco-2 cell layer was determined by growing the cells on a membrane placed between two (donor and acceptor) chambers. […] Permeability in this direction represents intestinal absorption. Permeability may also be determined from the basolateral to the apical side of the Caco-2 cell. A higher apical to basolateral Papp, compared to the basolateral to apical Papp, is indicative of carrier-mediated transport.
Permeability (10 μM) for compounds of the invention in the apical to basolateral and basolateral to apical direction were tested in duplicate. Samples will be collected from the donor and acceptor chambers at the beginning (0 min) and following 60 min of incubation at 37° C. and stored frozen at −70° C. until bioanalysis. Samples for each test compound generated from the Caco-2 permeability assay were further analyzed by LC-MS-MS. The permeability of [^3H]-mannitol and [^3H]-propranolol were determined in parallel as controls.
The permeability coefficient (Papp) of each compound and radiolabeled standard was determined using the following equation:
where dQ/dT represents the permeability rate, Ci denotes the initial concentration in the donor compartment, and A represents the surface area of the filter. Ci is determined from the mean concentration of duplicate samples taken prior to addition to the donor compartment. Permeability rates were calculated by plotting the cumulative amount of compound measured in the acceptor compartment over time and determining the slope of the line by linear regression analysis. The duplicate and mean apical to basolateral and basolateral to apical Papp's were reported for each compound and standard.

[2] = Pharmacokinetic analysis (oral bioavailability, elimination half-life) in the rat; format: in vivo; conditions: oral administration, HPLC-MS
How it was run: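 Rat, oral dosing at 8 mg/kg (one compound at 2 mg/kg). Plasma levels by HPLC-MS, giving oral bioavailability and elimination half-life.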

[3] = molecular target: T1, hGHS-R1a (Homo sapiens, UniProt Q92847); test: Activation-desensitization profile, Ca2+ flux in HEK293 cells stably expressing hGHS-R1a; format: cell-based; conditions: higher positive = less desensitization potential
T1 construct: expressed in transfected cells
Experimental: M. Activation-Desensitization Profile
It is well-known that agonists of G-protein coupled receptors can induce desensitization or tachyphylaxis, thereby limiting the potential of agents acting at the receptor as therapeutics for chronic use.
• 1. […] Agonist-induced Ca^+2 fluxes were measured after loading with Ca^+2 indicator Fluo-4-AM. • 3. […] Results

[4] = Plasma protein binding, human plasma (equilibrium dialysis); format: in vitro ADME; conditions: test concentration 5 μg/mL
How it was run: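 Human plasma incubated with test article at several concentrations for 60 min at 37° C. Bound and unbound fractions separated by equilibrium dialysis; unbound concentration quantified by LC-MS or LC-MS-MS.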

[5] = Plasma protein binding, rat plasma; format: in vitro ADME; conditions: test concentration 5 μg/mL
[6] = tested on: rat stomach fundus strips; test: tissue or blood; conditions: read-out: EC50 values for contractility
Experimental: Fundus strips (approximately 0.4×1 cm) were cut from the stomach of adult male Wistar rats parallel to the circular muscle fibers. They were placed between two platinum ring electrodes, 1 cm apart (Radnoti, ADInstruments, USA) in 10 ml tissue baths containing Krebs solution bubbled with 5% CO2 in O2 and maintained at 37° C. Tissues were suspended under 1.5 g resting tension. Changes of tension were measured isometrically with force transducers and recorded with a PowerLab 8/30 data acquisition system (ADInstruments, USA). Tissues were allowed to equilibrate for 60 min during which time bath solutions were changed every 15 min.
EFS was achieved by applying 0.5 ms pulses, 5 Hz frequency, at a maximally effective voltage of 70 V. EFS was applied for 30 sec at 3 min intervals for a 30 min initial period. This initial period was separated by a 5 min interval with wash out of the bath solution. Then, a second period of stimulation was started. […] Responses to the agents were measured and expressed as % of the mean of three or four pre-drug responses to EFS. All compounds were dissolved at 1 mM in distilled water or MeOH, as stock solutions.

[7] = molecular target: GHS-R1a receptor (human ghrelin receptor) (Homo sapiens, UniProt Q92847); test: Aequorin functional assay (ghrelin receptor), standard method B; format: cell-based
Text: B. Aequorin Functional Assay (Ghrelin Receptor)
See also U.S. patent application Ser. Nos. 11/149,512 and 11/149,731. (LePoul, E.; et al. J. Biomol. Screen. 2002, 7, 57-65; Bednarek, M. A.; et al. J. Med. Chem. 2000, 43, 4370-4376; Palucki, B. L.; et al. Bioorg. Med. Chem. Lett. 2001, 11, 1955-1957.) Functional activity at the gherlin receptor for representative compounds of the present invention is presented in the Examples.

T1 sequence (Q92847 whole entry): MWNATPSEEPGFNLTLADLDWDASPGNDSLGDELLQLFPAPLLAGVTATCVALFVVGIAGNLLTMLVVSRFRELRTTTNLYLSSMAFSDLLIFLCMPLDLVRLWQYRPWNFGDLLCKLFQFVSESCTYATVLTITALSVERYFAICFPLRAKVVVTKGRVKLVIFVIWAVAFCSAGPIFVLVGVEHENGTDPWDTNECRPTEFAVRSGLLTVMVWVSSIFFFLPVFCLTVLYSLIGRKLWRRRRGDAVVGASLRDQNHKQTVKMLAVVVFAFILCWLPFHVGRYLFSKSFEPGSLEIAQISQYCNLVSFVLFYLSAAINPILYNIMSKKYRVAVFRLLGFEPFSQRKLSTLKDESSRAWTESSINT
GHS-R1a receptor (human ghrelin receptor), sequence (Q92847 whole entry): as above

Compound | Papp A to B [1] | Papp B to A [1] | BtoA/AtoB [1] | Elimination Half-life (t1/2, rat, min) ([2]; 8 mg/kg dose) | Oral Bioavailability (rat, % F) ([2]; 8 mg/kg dose) | also measured
C[C@@H]1C(=O)N[C@H](Cc2ccc(O)cc2)C(=O)NCCCc2cccc3c2O[C@H](CC3)CN[C@@H](C2CC2)C(=O)N1C [Compound 803] | 12.1 cm/sec × 10^−6 | 67.3 cm/sec × 10^−6 | 5.59 | 151 min | 9 % F | –
CC1NC(C2CC2)C(=O)N(C)C(C)C(=O)NC(Cc2ccc(O)cc2)C(=O)NCCCc2ccccc2OC1C (centres unmarked) [Compound 820] | – | – | – | 137 min | 18 % F | –
CC1CNC(C2CC2)C(=O)N(C)C(C)C(=O)NC(Cc2ccc(O)cc2)C(=O)NCCCC2CCCCC2O1 (mixture of isomers) [Compound 826] | 11.2 cm/sec × 10^−6 | 46.9 cm/sec × 10^−6 | 4.18 | 77 min | 29 % F | Δ(activity-desensitization) (pEC50 − pDC50) [3]: 1.90
CC(C)C[C@H]1NC(=O)[C@@H](C)N(C)C(=O)[C@H](C2CC2)NC[C@@H](C)Oc2ccccc2CC[C@H](C)NC1=O [Compound 807] | – | – | – | – | 23 % F | fraction unbound at 60 min, 5 μg/mL [4]: 0.007; fraction unbound at 60 min, 5 μg/mL [5]: 0.16; EC50 [6]: 150 nM; Δ(activity-desensitization) (pEC50 − pDC50) [3]: 3.08; EC50 [7]: ≤ 50 nM; half-life ([2]; plasma, 8 mg/kg dose, read-out: Elimination Half-life (t1/2, rat, min)): 197 min
CC(C)C[C@H]1NC(=O)[C@@H](C)N(C)C(=O)[C@H](C2CC2)NCCOc2cc(F)ccc2CC[C@H](C)NC1=O [Compound 822] | – | – | – | – | – | Elimination Half-life (t1/2, rat, min) ([2]; 2 mg/kg dose (compound 822)): 65 min; Oral Bioavailability (rat, % F) ([2]; 2 mg/kg dose (compound 822)): 51 % F
CC(C)C[C@H]1NC(=O)[C@@H](C)N(C)C(=O)[C@H](C2CC2)NCCOc2cc(F)ccc2CCCNC1=O [Compound 810] | – | – | – | 116 min | 15 % F | –
CC(C)CC1NC(=O)C(C)N(C)C(=O)C(C2CC2)NCC(C)OC2CCCCC2CCCNC1=O (mixture of isomers) [Compound 825] | 113 cm/sec × 10^−6 | 123 cm/sec × 10^−6 | 1.08 | 101 min | 37 % F | –
